The values below come from ChEMBL document CHEMBL1212796, “Ineffectiveness of tigecycline against persistent Borrelia burgdorferi” (2010).

Each structure is given as a SMILES string. ≈ marks a conversion by molar mass, not a printed value. Calls of active or inactive are those of the source. The calls are words filed in the database; no cut-off is given here.

Assay [1] is described as follows: Reduction in ospA gene expression in heart base tissue of SCID mouse transplanted with tibiotarsal and heart base tissue from Borrelia burgdorferi infected 12.5 mg/kg treated mouse. The conditions noted are these: Borreliella burgdorferi, at 12.5 mg/kg. Format: functional, organism-based. Further details: dose 12.5 mg/kg.
In assay [2] the test system is Borrelia burgdorferi. As to the kind of experiment: Antimicrobial activity against Borrelia burgdorferi B31. The conditions noted are these: Borreliella burgdorferi. The format is functional.
Assay [3] concerns Borrelia burgdorferi. As to the kind of experiment: Antimicrobial activity against Borrelia burgdorferi N40. Format: functional. To be noted: Borreliella burgdorferi.
A short description of assay [4]: Reduction in ospA gene expression in heart base tissue Borrelia burgdorferi infected mouse at 50 mg/kg. Format: functional, organism-based. Further details: dose 50 mg/kg. The conditions noted are these: Borreliella burgdorferi.
Assay [5] can be described thus: Reduction in arp gene expression in heart base tissue Borrelia burgdorferi infected mouse at 50 mg/kg. The format is functional, organism-based. Further details: dose 50 mg/kg. The conditions noted are these: Borreliella burgdorferi.
Assay [6] in a line: Reduction in oppA-2 gene expression in heart base tissue Borrelia burgdorferi infected mouse at 50 mg/kg. Format: functional, organism-based. Further details: dose 50 mg/kg. The conditions noted are these: Borreliella burgdorferi.
Assay [7] is described as follows: Reduction in flaB gene expression in heart base tissue Borrelia burgdorferi infected mouse at 50 mg/kg. The format is functional, organism-based. Further details: dose 50 mg/kg. To be noted: Borreliella burgdorferi.
Assay [8] is described as follows: Reduction in arp gene expression in heart base tissue Borrelia burgdorferi infected mouse at 12.5 mg/kg. Format: functional, organism-based. Further details: dose 12.5 mg/kg. The conditions noted are these: Borreliella burgdorferi.
Assay [9] in a line: Reduction in beta-Actin gene expression in heart base tissue Borrelia burgdorferi infected mouse at 12.5 mg/kg. Format: functional, organism-based. Further details: dose 12.5 mg/kg. To be noted: Borreliella burgdorferi.
Assay [10] is described as follows: Reduction in ospA gene expression assessed as gene copies in per mg of SCID mouse ventricular/quadriceps tissue receiving Borrelia burgdorferi infected nymphal ticks from 50 mg/kg treated mouse. Format: functional, organism-based. Further details: dose 50 mg/kg. To be noted: Borreliella burgdorferi; Cardiac ventricle; at 50 mg/kg.
A short description of assay [11]: Reduction in dbpA gene expression in heart base tissue Borrelia burgdorferi infected mouse at 50 mg/kg. Further details: dose 50 mg/kg. The conditions noted are these: Borreliella burgdorferi. The format is functional, organism-based.
Assay [12] in a line: Reduction in ospA gene expression in heart base tissue of SCID mouse transplanted with tibiotarsal and heart base tissue from Borrelia burgdorferi infected 50 mg/kg treated mouse. The format is functional, organism-based. Further details: dose 50 mg/kg. To be noted: Borreliella burgdorferi, at 50 mg/kg.
Assay [13] is described as follows: Reduction in flaB gene expression in heart base tissue Borrelia burgdorferi infected mouse at 12.5 mg/kg. The format is functional, organism-based. Further details: dose 12.5 mg/kg. To be noted: Borreliella burgdorferi.
A short description of assay [14]: Reduction in beta-actin gene expression in heart base tissue Borrelia burgdorferi infected mouse at 50 mg/kg. To be noted: Borreliella burgdorferi. The format is functional, organism-based. Further details: dose 50 mg/kg.

What is called MIC is the lowest concentration found to suppress growth. `CO/N=C(\C(=O)N[C@@H]1C(=O)N2C(C(=O)O)=C(CSc3nc(=O)c(O)nn3C)CS[C@H]12)c1csc(N)n1` [CEFTRIAXONE]: the inhibition result in assay [1] was “Active”. In addition, the results for the MIC in the assay with Borrelia burgdorferi [2] and in the assay with Borrelia burgdorferi [3] were 0.012 µg/mL (≈ 0.0216 µM) and 0.048 µg/mL (≈ 0.0866 µM), respectively.

Consider `C[C@H]1c2cccc(O)c2C(=O)C2=C(O)[C@]3(O)C(=O)C(C(N)=O)=C(O)[C@@H](N(C)C)[C@@H]3[C@@H](O)[C@@H]21.O` [DOXYCYCLINE], for which the figures for the MIC against Borrelia burgdorferi [2] and against Borrelia burgdorferi [3] were 0.39 µg/mL and 0.78 µg/mL, respectively.

Turning to `CC1(C)S[C@@H]2[C@H](NC(=O)Cc3ccccc3)C(=O)N2[C@H]1C(=O)O` [PENICILLIN G], the MIC in the assay on Borrelia burgdorferi [2] and in the assay with Borrelia burgdorferi [3] was 0.024 µg/mL (≈ 0.0718 µM) in each case.

Consider `CN(C)c1cc(NC(=O)CNC(C)(C)C)c(O)c2c1C[C@H]1C[C@H]3[C@H](N(C)C)C(O)=C(C(N)=O)C(=O)[C@@]3(O)C(O)=C1C2=O` [TIGECYCLINE], for which the inhibition result in [4], in assay [5], in assay [7], in assay [8], in assay [10] and in assay [11] was “Active” each time. The inhibition result in [12] and in assay [13] was “Active” in each case. For the same molecule, the inhibition entry in assay [6], in assay [9] and in [14] was “inactive” each time. Moreover, the MIC in the assay on Borrelia burgdorferi [2] and in the assay with Borrelia burgdorferi [3] was 0.006 µg/mL (≈ 0.0102 µM) each time.
